In patent publication US6215002A, “Pyrrolopyrrolone derivatives as inhibitors of neutrophil elastase” (priority 1996, dated 2001):
Structures can show the parent of a compound that is named as a salt.

How the values were obtained:
[1] = biological target: T1, human neutrophil elastase (Homo sapiens, UniProt P08246); assay: In vitro assay of human neutrophil elastase (HNE); format: biochemical; conditions: 118 nM purified human neutrophil elastase, pH 8.6, 15 min incubation at 30° C., MeO-succinyl-alanyl-alanyl-prolyl-valyl-p-nitroanilide substrate; read-out: HNE IC50
T1 sequence (P08246 30-267): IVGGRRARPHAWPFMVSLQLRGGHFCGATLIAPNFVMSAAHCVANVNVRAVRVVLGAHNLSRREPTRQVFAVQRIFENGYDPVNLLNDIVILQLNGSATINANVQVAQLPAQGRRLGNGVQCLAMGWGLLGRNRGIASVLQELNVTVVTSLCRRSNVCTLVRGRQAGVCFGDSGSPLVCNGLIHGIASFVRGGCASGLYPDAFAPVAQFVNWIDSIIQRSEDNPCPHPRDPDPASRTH
Outline: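 Residual activity was taken as the 10 min rate of absorbance rise at 405 nm after adding 0.6 mM MeO-succinyl-AAPV-p-nitroanilide. Curve fitting of activity against concentration gave IC50.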

Intracellular elastase = assay: Oral in vivo model using IL-8 induced lung infiltrates for the assessment of intracellular elastase inhibition (hamster test); conditions: effective dose of less than 40 mg/kg, IL-8 intratracheal
Outline: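 Fasted adult hamsters (n=4) given compound orally in water, with intratracheal 1 ug recombinant human IL-8; sacrificed 6 h later. Neutrophils from lung lavage and femoral bone marrow sonicated, granules disrupted, and elastase measured, with myeloperoxidase used to normalise for neutrophil recovery.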

| SMILES | IC50 [1] [nM] | duration of effect (Intracellular elastase) |
| --- | --- | --- |
| CCCN(C)Cc1ccc(C(=O)N2CC[C@H]3[C@H]2[C@@H](C(C)C)C(=O)N3S(C)(=O)=O)cc1.Cl (relative stereo) [Example 181, rel-(3R,3aR,6aS)-3-Isopropyl-1-methanesulfonyl-4-{4-[(methyl-propyl-amino)-methyl]-benzoyl}-hexahydro-pyrrolo[3,2-b]pyrrol-2-one hydrochloride] | 42 | at least 6 hours |
| CC(C)NCc1ccc(C(=O)N2CC[C@H]3[C@H]2[C@@H](C(C)C)C(=O)N3S(C)(=O)=O)cc1.Cl (relative stereo) [Example 179, rel-(3R,3aR,6aS)-3-Isopropyl-4-[4-(isopropylamino-methyl)-benzoyl]-1-methanesulfonyl-hexahydro-pyrrolo[3,2-b]pyrrol-2-one hydrochloride] | 47 | at least 6 hours |
| CCC[C@H]1C(=O)N(S(=O)(=O)c2ccc3ccccc3c2)[C@H]2CCN(C(=O)CCN3CCCCC3)[C@H]12 (relative stereo) [Example 2, rel-(3R,3aR,6aS)-1-(Naphthalene-2-sulfonyl)-4-(3-piperidin-1-yl-propionyl)-3-propyl-hexahydro-pyrrolo[3,2-b]pyrrol-2-one hydrochloride] | 137 | at least 6 hours |
| CC(C)[C@H]1C(=O)N(S(C)(=O)=O)[C@H]2CCN(C(=O)c3ccco3)[C@H]12 (relative stereo) [Example 248, rel-(3R,3aR,6aS)-4-(Furan-2-carbonyl)-3-isopropyl-1-methanesulfonyl-hexahydro-pyrrolo[3,2-b]pyrrol-2-one] | 60 | at least 6 hours |
| CC(C)[C@H]1C(=O)N(S(C)(=O)=O)[C@H]2CCN(C(=O)c3ccc(CN4CCCC4)cc3)[C@H]12.Cl (relative stereo) [Example 173, rel-(3R,3aR,6aS)-3-Isopropyl-1-methanesulfonyl-4-(4-pyrrolidin-1-ylmethyl-benzoyl)-hexahydro-pyrrolo[3,2-b]pyrrol-2-one hydrochloride] | 65 | at least 6 hours |
| CCC[C@H]1C(=O)N(S(C)(=O)=O)[C@H]2CCN(C(=O)/C=C/CN3CCCCC3)[C@H]12 (relative stereo) [Example 57, rel-(3R,3aR,6aS)-1-Methanesulfonyl-4-(4-piperidin-1-yl-but-2-(E)-enoyl-3-propyl-hexahydro-pyrrolo[3,2-b]pyrrol-2-one hydrochloride] | 27 | at least 6 hours |
| CON(C)C/C=C/C(=O)N1CC[C@H]2[C@H]1[C@@H](C(C)C)C(=O)N2S(C)(=O)=O (relative stereo) [Example 147, rel-(3R,3aR,6aS)-3-Isopropyl-1-methanesulfonyl-4-[4-(methoxy-methyl-amino)-but-E2-enoyl]-hexahydro-pyrrolo[3,2-b]pyrrol-2-one hydrochloride] | 96 | at least 6 hours |
| CCC[C@H]1C(=O)N(S(C)(=O)=O)[C@H]2CCN(C(=O)CCCCCN3CCOCC3)[C@H]12.O=C(O)C(O)C(O)C(=O)O (relative stereo) [Example 58, rel-(3R,3aR,6aS)-1-Methanesulfonyl-4-(6-morpholin-4-yl-hexanoyl)-3-propylhexahydro-pyrrolo[3,2-b]pyrrol-2-one 2,3-dihydroxysuccinate] | 72 | at least 6 hours |
| CC(C)[C@H]1C(=O)N(S(C)(=O)=O)[C@H]2CCN(C(=O)/C=C/c3ccc(CN(C)C)cc3)[C@H]12 (relative stereo) [Example 159, hydrochloride] | 17 | at least 6 hours |
| CCC[C@@H]1C(=O)N(S(C)(=O)=O)[C@@H]2CCN(C(=O)CCN3CCCCC3)[C@@H]12.Cl [Example 118, (3S,3aS,6aR)-1-Methanesulfonyl-4-(3-piperidin-1-yl-propionyl)-3-propyl-hexahydro-pyrrolo[3,2-b]pyrrol-2-one hydrochloride] | 73 | at least 6 hours |
| CCC[C@H]1C(=O)N(S(C)(=O)=O)[C@H]2CCN(C(=O)CCN3CCCCC3)[C@H]12 (relative stereo) [Example 29, rel-(3R,3aR,6aS)-1-Methanesulfonyl-4-(3-piperidin-1-yl-propionyl)-3-propyl-hexahydro-pyrrolo[3,2-b]pyrrol-2-one] | 139 | at least 6 hours |
| CC(C)[C@H]1C(=O)N(S(C)(=O)=O)[C@H]2CCN(C(=O)/C=C/CN3CCN(C)CC3)[C@H]12.Cl (relative stereo) [Example 143, rel-(3R,3aR,6aS)-3-Isopropyl-1-methanesulfonyl-4-[4-(4-methyl-piperazin-1-yl)-but-2E-enoyl]-hexahydro-pyrrolo[3,2-b]pyrrol-2-one hydrochloride] | 33 | at least 6 hours |
| CC(C)[C@H]1C(=O)N(S(C)(=O)=O)[C@H]2CCN(C(=O)c3ccc(CNC4CC4)o3)[C@H]12 (relative stereo) [Example 252, rel-(3R,3aR,6aS)-4-(5-Cyclolpropylaminomethyl-furan-2-carbonyl)-3-isopropyl-1-methanesulfonyl-hexahydro-pyrrolo[3,2-b]pyrrol-2-one hydrochloride] | 14 | at least 6 hours |
| CC(C)[C@H]1C(=O)N(S(C)(=O)=O)[C@H]2CCN(C(=O)/C=C/CNC3CC3)[C@H]12.Cl (relative stereo) [Example 137, rel-(3R,3aR,6aS)-4-(4-Cyclopropylamino-but-2E-enoyl)-3-isopropyl-1-methanesulfonyl-hexahydro-pyrrolo[3,2-b]pyrrol-2-one hydrochloride] | 45 | at least 6 hours |
| COC(=O)[C@@H]1CCCN1C/C=C/C(=O)N1CC[C@H]2[C@H]1[C@@H](C(C)C)C(=O)N2S(C)(=O)=O (relative stereo) [Example 140, 1-[4-(rel-6R-Isopropyl-4-methanesulfonyl-5-oxo-hexahydro-(3aS,6aR)-pyrrolo[3,2-b]pyrrol-1-yl)-4-oxo-but-2E-enyl]-pyrrolidine-2S-carboxylic acid methyl ester hydrochloride] | 36 | at least 6 hours |
| CC(C)[C@H]1C(=O)N(S(C)(=O)=O)[C@H]2CCN(C(=O)c3cccc(CN4CCN(C)CC4)c3)[C@H]12.Cl.Cl (relative stereo) [Example 189, rel-(3R,3aR,6aS)-3-Isopropyl-1-methanesulfonyl-4-[3-(4-methyl-piperazin-1-ylmethyl)-benzoyl]-hexahydro-pyrrolo[3,2-b]pyrrol-2-one dihydrochloride] | 62 | at least 6 hours |
| CC(C)[C@H]1C(=O)N(S(C)(=O)=O)[C@H]2CCN(C(=O)c3ccc(CN4CCC(C(N)=O)CC4)cc3)[C@H]12.Cl (relative stereo) [Example 187, rel-1-[4-(6R-Isopropyl-4-methanesulfonyl-5-oxo-hexahydro-(3aS,6aR)-pyrrolo[3,2-b]pyrrole-1-carbonyl)-benzyl]-piperidine-4-carboxylic acid amide hydrochloride] | 43 | at least 6 hours |
| CC(C)[C@H]1C(=O)N(S(C)(=O)=O)[C@H]2CCN(C(=O)c3ccc(CN4C(C)CCCC4C)cc3)[C@H]12.Cl (relative stereo) [Example 200, rel-(3R,3aR,6aS)-4-[4-(2,6-Dimethyl-piperidin-1-ylmethyl)-benzoyl]-3-isopropyl-1-methanesulfonyl-hexahydropyrrolo[3,2-b]pyrrol-2-one hydrochloride] | 53 | at least 6 hours |
| CC(C)[C@H]1C(=O)N(S(C)(=O)=O)[C@H]2CCN(C(=O)c3ccc(CN(C)C)o3)[C@H]12.Cl (relative stereo) [Example 251, rel-(3R,3aR,6aS)-4-(5-Dimethylaminomethyl-furan-2-carbonyl)-3-isopropyl-1-methanesulfonyl-hexahydro-pyrrolo[3,2-b]pyrrol-2-one hydrochloride] | 43 | at least 6 hours |
| CC(C)[C@H]1C(=O)N(S(C)(=O)=O)[C@H]2CCN(C(=O)c3cccc(CN4CCCCC4)c3)[C@H]12 (relative stereo) [Example 192, rel-(3R,3aR,6aS)-3-Isopropyl-1-methanesulfonyl-4-(3-piperidin-1-ylmethyl-benzoyl)-hexahydro-pyrrolo]3,2-b]pyrrol-2-one hydrochloride] | 61 | at least 6 hours |
| CCC[C@H]1C(=O)N(S(C)(=O)=O)[C@H]2CCN(S(=O)(=O)c3ccc(NC(C)=O)cc3)[C@H]12 (relative stereo) [Example 63, rel-N-[4-(4-Methanesulfonyl-5-oxo-6R-propyl-hexahydro-(3aS,6aR)-pyrrolo[3,2-b]pyrrole-1-sulfonyl)phenyl]-acetamide] | 6 | at least 6 hours |
| CC(C)[C@H]1C(=O)N(S(C)(=O)=O)[C@H]2CCN(C(=O)c3ccc(CN4CCN(C)CC4)cc3)[C@H]12.Cl.Cl (relative stereo) [Example 176, rel-(3R,3aR,6aS)-3-Isopropyl-1-methanesulfonyl-4-[4-(4-methyl-piperazin-1-ylmethyl)-benzoyl]-hexahydro-pyrrolo[3,2-b]pyrrol-2-one dihydrochloride] | 90 | at least 6 hours |
